Measurements as given in patent US7981892B2, “Disubstituted phthalazine hedgehog pathway antagonists” (Eli Lilly and Company, priority 2008, dated 2011).
pIC50: −log10 of the molar value. Where a name gives a salt, the structure may show the parent alone.

System: Gli1 transcript in Daoy cells stimulated with Shh conditioned media
Assay: Functional assay for measuring the inhibition of Gli1 in Daoy cells (bDNA assay of Gli1 transcript after Shh-conditioned media stimulation)
Assay type: cell-based
Settings: Homo sapiens; Daoy cells treated with Shh-CM, 24 hours incubation with compound, Gli1 transcript by bDNA luminescence
Description: Biological activity is determined using a functional assay in Daoy neuronal cancer cells and measures levels of Gli1 ribonucleic, acid via a bDNA. (branched deoxyribonucleic acid) assay system (Panomies, Inc., Fremont, Calif.), Gli was originally discovered in a Glioblastoma cell line and encodes a zinc finger protein that is activated by Shh signaling. The maximum response is obtained by inducing Gli1 transcription in the Daoy cells with conditioned medium (HEK-293 cells stably expressing recombinant Shb) for 24 hours and. then measuring the amount of stimulated Gli1 transcript. […]
The bDNA assay system utilizes the technology of branched-chain DNA to allow amplification of a target ribonucleic acid (transcript). […] The addition of a chemilumigenic substrate during the amplification step allows for detection using luminescence, […]
Daoy cells are grown to conflunency in tissue culture T225-flasks in Daoy growth media containing Minimum Essential Medium (MEM) plus 10% Fetal Bovine Serum (FBS) with […] non-essential amino acids and 1 mM sodium pyruvate. The cells are removed from the T225-flasks using trypsin ethylenediaminetetraacetic acid (EDTA), centrifuged, resuspended in media, and then counted. […]

Molecule CN(C(=O)c1c(F)cccc1C(F)(F)F)C1CCN(c2nnc(-c3ccccc3)c3ccccc23)CC1 [Example 36, 2-Fluoro-N-methyl-N-(1-(4-phenylphthalazin-1-yl)piperidin-4-yl)-6-(trifluoromethyl)benzamide hydrochloride] has a pIC50 of roughly 8.63.
